Measurements reported in ChEMBL document CHEMBL1268970, “Development of novel inhibitors targeting HIF-1α towards anticancer drug discovery” (Bioorg Med Chem Lett, 2010).
Calls of active or inactive are those of the source. No cut-off for these calls is given here.

Tests used:
[1] = biological target: T1, Hypoxia-inducible factor 1-alpha (Homo sapiens, UniProt Q16665); assay: Inhibition of HIF1alpha in human U251 cells under hypoxic condition by luciferase reporter gene assay; assay type: cell-based, U-251
Target sequence in this assay (Q16665 whole entry): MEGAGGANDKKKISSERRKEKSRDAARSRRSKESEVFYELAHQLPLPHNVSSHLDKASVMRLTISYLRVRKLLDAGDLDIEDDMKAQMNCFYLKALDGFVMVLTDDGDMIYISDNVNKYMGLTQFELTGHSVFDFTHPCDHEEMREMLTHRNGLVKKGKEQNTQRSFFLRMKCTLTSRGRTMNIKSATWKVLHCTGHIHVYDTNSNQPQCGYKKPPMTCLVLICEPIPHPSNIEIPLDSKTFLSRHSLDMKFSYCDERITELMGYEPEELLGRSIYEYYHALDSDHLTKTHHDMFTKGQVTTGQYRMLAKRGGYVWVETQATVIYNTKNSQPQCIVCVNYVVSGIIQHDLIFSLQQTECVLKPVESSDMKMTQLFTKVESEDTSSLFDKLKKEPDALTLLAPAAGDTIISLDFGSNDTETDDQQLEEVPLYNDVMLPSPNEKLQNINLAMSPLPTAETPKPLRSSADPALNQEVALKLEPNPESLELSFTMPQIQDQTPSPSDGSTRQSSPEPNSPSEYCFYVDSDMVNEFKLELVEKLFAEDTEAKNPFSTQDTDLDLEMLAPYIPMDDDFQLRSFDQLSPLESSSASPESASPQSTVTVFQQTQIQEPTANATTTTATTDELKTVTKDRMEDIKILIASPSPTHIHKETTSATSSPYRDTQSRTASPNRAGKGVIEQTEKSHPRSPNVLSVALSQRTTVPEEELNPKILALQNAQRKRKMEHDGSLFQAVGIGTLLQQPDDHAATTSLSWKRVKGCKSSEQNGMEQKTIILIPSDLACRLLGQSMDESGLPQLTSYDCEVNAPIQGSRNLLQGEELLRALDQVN

[2] = biological target: T1, Hypoxia-inducible factor 1-alpha; assay: Inhibition of HIF1alpha in human U251 cells under normoxic condition by luciferase reporter gene assay; assay type: cell-based, U-251
Target sequence in this assay (Q16665 whole entry): as above

DU-145 = assay: Antiproliferative activity against human DU145 cells by [3H]thymidine incorporation assay; assay type: functional, cell-based
U-251 [3] = assay: Antiproliferative activity against human U251 cells by [3H]thymidine incorporation assay; assay type: functional, cell-based
PC-3 [4] = assay: Antiproliferative activity against human PC3 cells by [3H]thymidine incorporation assay; assay type: functional, cell-based
PC-3 [5] = assay: Inhibition of HIF1alpha expression in human PC3 cells by Western blot analysis; assay type: functional, cell-based
MRC5 = assay: Antiproliferative activity against human MRC5 cells by [3H]thymidine incorporation assay; assay type: cell-based
PC-3 [6] = assay: Antitumor activity against human PC3 cells xenografted in SCID mouse assessed as tumor growth inhibition at 50 mg/kg, po BID for 19 days measured on day 20; assay type: functional, organism-based; set-up: dose 50 mg/kg
[7] = biological target: T1, Hypoxia-inducible factor 1-alpha; assay: Inhibition of HIF1-alpha-mediated VEGF mRNA expression in human PC3 cells under hypoxic condition by RT-PCR analysis; assay type: cell-based; details: PC-3
Target sequence in this assay (Q16665 whole entry, looked up): as the sequence (Q16665 whole entry) above

PANC-1 = assay: Antiproliferative activity against human PANC1 cells by [3H]thymidine incorporation assay; assay type: functional, cell-based
HUVEC = assay: Antiangiogenic activity in HUVEC assessed as inhibition of tube formation; assay type: functional, cell-based; details: Homo sapiens
[8] = Antiproliferative activity against human WI38 cells by [3H]thymidine incorporation assay; assay type: cell-based; details: WI-38
U-251 [9] = assay: Inhibition of HIF1alpha expression in human U251 cells by Western blot analysis; assay type: functional, cell-based
OVCAR-3 = assay: Antiproliferative activity against human OVCAR-3 cells by [3H]thymidine incorporation assay; assay type: functional, cell-based; details: OVCAR-3, 3 h
HCT-116 = assay: Antiproliferative activity against human HCT116 cells by [3H]thymidine incorporation assay; assay type: functional, cell-based
Mus musculus = assay: Toxicity in SCID mouse xenografted with human PC3 cells assessed as weight loss at 50 mg/kg, po BID for 19 days measured on day 25; assay type: organism-based, PC-3; set-up: dose 50 mg/kg, route oral; details: in vivo, 456 h

Work on CCOc1cc(C(F)(F)F)nc(-c2ccc(N)cn2)n1 yielded an IC50 [1] of over 30 µM.
With O=C(CCl)Nc1ccc(-c2nc(Cl)cc(C(F)(F)F)n2)nc1 the IC50 [2] was 10 µM and the IC50 [1] was 1.4 µM.
For C=CCOc1cc(C(F)(F)F)nc(-c2ccc(N)cn2)n1, the IC50 [1] was over 30 µM.
Cc1nc(-c2ccc(N)cn2)nc(O)c1Cc1ccccc1 showed an IC50 [1] of over 30 µM.
In the case of COc1cc(C(F)(F)F)nc(-c2ccc(N)cn2)n1, the IC50 [1] is reported as over 30 µM.
With C=CCOc1nc(-c2ccc(NC(=O)CCl)cn2)nc(C)c1CC the IC50 [2] was 22 µM and the IC50 [1] was 1.8 µM.
Work on C=CCOc1nc(-c2ccc(NC(=O)CCl)cn2)nc(C)c1Cl yielded an IC50 [2] of 8 µM and an IC50 [1] of 1.5 µM.
Cc1nc(-c2ccc(NC(=O)CCl)cn2)nc(O)c1C gave an IC50 [1] of over 30 µM.
Work on Cc1nc(-c2ccc(NC(=O)CCl)cn2)nc(O)c1Cc1ccccc1 yielded an IC50 [2] of 10 µM and an IC50 [1] of 4 µM.
CCOc1cc(C(F)(F)F)nc(-c2ccc(NC(=O)CCl)cn2)n1 gave an IC50 [1] of 8 µM.
Molecule Cc1nc(-c2ccc(N)cn2)nc(O)c1F has an IC50 [1] of over 30 µM.
With C=CCOc1nc(-c2ccc(N)cn2)nc(C)c1Cl the IC50 [1] was over 30 µM.
Cc1nc(-c2ccc(NC(=O)CCl)cn2)[nH]c(=O)c1Cl showed an IC50 [1] of 5.5 µM.
CCc1c(C)nc(-c2ccc(N)cn2)nc1O gave an IC50 [1] of over 30 µM.
Molecule CC[C@@]1(O)C(=O)OCc2c1cc1n(c2=O)Cc2cc3c(CN(C)C)c(O)ccc3nc2-1 [TOPOTECAN] has an IC50 (DU-145) of 1.2 µM, an IC50 (U-251 [3]) of 0.5 µM and an IC50 (PC-3 [4]) of 1 µM.
For Nc1ccc(-c2nc(O)cc(C(F)(F)F)n2)nc1, the IC50 [1] was over 30 µM.
Work on COc1cc(C(F)(F)F)nc(-c2ccc(NC(=O)CCl)cn2)n1 yielded an IC50 [2] of 15 µM and an IC50 [1] of 3.5 µM.
In the case of Cc1nc(-c2ccc(N)cn2)nc(O)c1C, the IC50 [1] is reported as over 30 µM.
Molecule C=CCOc1nc(-c2ccc(N)cn2)nc(C)c1CC has an IC50 [1] of over 30 µM.
With Nc1ccc(-c2nc(O)cc(CCl)n2)nc1 the IC50 [2] was 22 µM and the IC50 [1] was 6 µM.
With O=C(Nc1ccc(-c2nc(O)cc(C(F)(F)F)n2)nc1)C(F)(F)Cl the IC50 [1] was over 30 µM.
C=CCOc1cc(C(F)(F)F)nc(-c2ccc(NC(=O)CCl)cn2)n1 gave an IC50 [2] of 30 µM and an IC50 [1] of 2 µM.
Work on O=C(CCl)Nc1ccc(-c2nc(O)cc(CCl)n2)nc1 yielded an IC50 [2] of 5.5 µM and an IC50 [1] of 1.5 µM.
Cc1nc(-c2ccc(NC(=O)CCl)cn2)[nH]c(=O)c1F gave an IC50 [2] of 6 µM and an IC50 [1] of 2 µM.
With O=C(CCl)Nc1ccc(-c2nc(O)cc(C(F)(F)F)n2)nc1 the IC50 [2] was 8 µM, the inhibition (PC-3 [5]) was “Dose-dependent effect” and the IC50 (MRC5) was over 10 µM. For the same molecule, the “growth inhibition (GI)” value (PC-3 [6]) was “Active”, the IC50 (DU-145) was 1.2 µM and the IC50 (U-251 [3]) was 1.5 µM. For the same molecule, the IC50 (PC-3 [4]) was 1 µM, the inhibition [7] was “Dose-dependent effect” and the IC50 (PANC-1) was 2 µM. For the same molecule, the inhibition (HUVEC) was “Dose-dependent effect”, the IC50 [8] was 6.5 µM and the IC50 [1] was 0.8 µM. The inhibition (U-251 [9]) was “Dose-dependent effect”, the IC50 (OVCAR-3) was 3.5 µM and the IC50 (HCT-116) was 0.8 µM. For the same molecule, the Activity (Mus musculus) was “Non-toxic”.
Cc1nc(-c2ccc(N)cn2)nc(O)c1Cl gave an IC50 [1] of over 30 µM.
For CCc1c(C)nc(-c2ccc(NC(=O)CCl)cn2)nc1O, the IC50 [2] was 5.5 µM and the IC50 [1] was 1.5 µM.
